Test results from US20250152524A1, “TOPICAL COMPOSITIONS AND METHODS” (VasoDynamics Limited, priority 2022, published 2025).
Where “and” joins values, the source holds several entries; their conditions need not be identical. Equal entries are not always repeated. Structures can show the parent of a compound that is named as a salt. Where two headings read alike, the source gives them in different places.

Key:
[1] = tested on: submucosal blood vessels
Method: 2. While stirring, 2-5 N HCl was added to achieve a pH of 2.5.
3. […] The subject swished the 12.5 ml of formulation, gargling twice for 5 seconds each, for 2.0 minutes, and then spit out the formulation.

[2] = tested on: squamous human skin; conditions: 3 mg/ml
[3] = for μmols retained in oropharyngeal cavity (A × 0.24): 12.5 ml administered; for Optimum L-Epinephrine Topical Dose (μmols/cm^2): 12.5 ml, surface area 188 cm^2
Method: In these experiments, three human volunteer subjects were provided vials containing solution of 5 mM phenylephrine HCl dissolved in our orotopical delivery vehicle, and they were instructed to: • i) deliver the vial contents into their mouths; • ii) ii) swish the liquid in their mouths, pausing to gargle twice for five seconds; and • iii) at the specified time spit out the liquid into a glass vial.
The volume administered and the volume spit out by each test subject were recorded, and HPLC analysis of the phenylephrine concentration in the administered solution and the solutions spit out by each of the three volunteer subjects were determined.

[4] = Nutman et al., Crit Care Med 1994; cited from earlier work
[5] = Stability of pharmaceutical composition with around 20% wt/vol oxygen (Example 9); format: physicochemical; conditions: 5 mM (0.92 mg/ml)
Method: The stability study samples were stored at the stability incubator chambers with various temperature and humidity conditions. At indicated time points, pulled samples were assessed on items such as Appearance, Identification, Colour of solution, Clarity of solutions, pH, Assay, Related Substances, Ethanol and Sodium Metabisulfite content for L-epinephrine solution.

[6] = HCl titration of L-epinephrine free base in orotopical delivery vehicle: pH and appearance; format: physicochemical
Method: 18 hours later, the clear solution had developed a pink colour (consistent with adrenochrome formation, an oxidative epinephrine metabolite) and flocculant, re-precipitated material had appeared on the surface of the liquid.
An abrupt drop in pH occurred at pH 6.10 in which the turbidity also immediately clarified. Table 2 provides a summary of the pH values from this titration, and indicates the experimentally determined moles of HCl that were required to achieve pH 2.50 in this specific formulation

[7] = tested on: oral mucosa tissue; experiment: Lip blanch response after topical application of 1.0 ml to lips (Example 1); format: in vivo, human
[8] = tested on: mucositis, dermatitis and alopecia; conditions: topically applied, animal models; cited from earlier work
[9] = tested on: cancerous tissues; conditions: topical application, three xenograft tumour mice models; cited from earlier work
[10] = tested on: radiation dermatitis; conditions: cited from earlier work; for relative potencies of the topically applied vasoconstrictors (suppression of radiation dermatitis): 75 μl in ethanol:water (70:30) on 4.5 cm^2 shaved skin 12 min before 17.2 Gy; for potency in comparison to epinephrine: Fahl, 2016
[11] = 5 mM × 12.5 ml administered, one line per subject, HCl

CNC[C@H](O)c1ccc(O)c(O)c1 [L-epinephrine]
lip blanching (photos) ([1]; 5.5 mg/ml solution on the lower lip): blanching
lip blanch response ([1]; 5 minutes after initiation of gargling, 12.5 ml, pH 2.5): clear, robust blanch response
time within which robust mucosal blanch was induced ([1]; four healthy volunteers, 0.9-5.5 mg/ml): 5 to 60 min
duration of blanching after dermal topical application [2]: about 40 minutes
share of L-epinephrine dose from the orotopical solution delivered to oral mucosa ([3]; 1.8 mg/ml or 3.6 mg/ml administered to mouths of adult humans): 20-30%
μmols retained in oropharyngeal cavity (A × 0.24) ([3]; 10 mM (1.8 mg/ml)): 30 μmols
Optimum L-Epinephrine Topical Dose (μmols/cm^2) ([3]; 10 mM (1.8 mg/ml)): 0.160 μmols/cm^2
μmols retained in oropharyngeal cavity (A × 0.24) ([3]; 20 mM (3.6 mg/ml)): 60 μmols
Optimum L-Epinephrine Topical Dose (μmols/cm^2) ([3]; 20 mM (3.6 mg/ml)): 0.320 μmols/cm^2
2N HCl added to adjust to pH 2.33 (ml/l) (L-epi conc 0.92 mg/ml): 5.36 ml/l
pH without addition of L-epi (L-epi conc 0.92 mg/ml): 4.32
2N HCl added to adjust to pH 2.33 (ml/l) (L-epi conc 5.50 mg/ml): 11.88 ml/l
pH without addition of L-epi (L-epi conc 5.50 mg/ml): 7.10
potency versus racemic +/−epinephrine HCl [4]: twice as potent
single impurity ([5]; 40° C. for 1 month): ~1.7%
total impurities ([5]; 40° C. for 1 month): 3.8%
concentration of antioxidant sodium metabisulfite ([5]; 60° C. and 40° C.): decreasing trend
decrease of concentration of L-epinephrine ([5]; 60° C. stress condition): about 18%
sample colour ([5]; 60° C. stress condition): light brown
single impurity ([5]; 60° C. stress condition): more than 8%
total impurities ([5]; 60° C. stress condition): more than 17%
appearance of solution ([6]; at pH 2.50): clear and colourless
appearance of solution ([6]; at pH 4.95): clear and colourless
appearance of solution ([6]; pH 2.50 solution, 48 hrs later): clear and colourless
appearance of solution ([6]; pH 4.95 solution, 18 hours later): pink colour
time to see a robust lip blanch response ([7]; solution at pH 2.50, 20 mM, 1.0 ml on lips): 8 min
time to see a discernible lip blanch response ([7]; solution at pH 4.95, 1.0 ml on lips): ~20 min

CNC[C@H](O)c1cccc(O)c1 [PhE-HCl, phenylephrine HCl]
Spit Out PhE-HCl mg/ml (hplc) × ml B ([3]; 5 mM × 12.5 ml (12.8 mg) administered, one line per subject, mean in brackets, HCl): (10.59) mg/ml × ml and 9.23, 9.62 (9.42) mg/ml × ml and 8.91, 9.51 (9.21) mg/ml × ml
% of Administered Dose Spit Out B/A × 100 [3, 11]: 74% and 72% and 83%
% of Orotopical PhE-HCl Dose Delivered to Oral Surfaces [3, 11]: 26% and 28% and 17%
mg PhE-HCl Actually Delivered [3, 11]: 3.3 mg and 3.6 mg and 2.2 mg

CNC[C@H](O)c1ccc(O)c(O)c1 [epinephrine]
prevention of mucositis, dermatitis and alopecia induced by radiation [8]: successful outcome
interference to the curative radiation effect to cancerous tissues [9]: no interference
relative potencies of the topically applied vasoconstrictors (suppression of radiation dermatitis) [10]: 1

NC[C@H](O)c1ccc(O)c(O)c1 [norepinephrine]
prevention of mucositis, dermatitis and alopecia induced by radiation [8]: successful outcome
interference to the curative radiation effect to cancerous tissues [9]: no interference
relative potencies of the topically applied vasoconstrictors (suppression of radiation dermatitis) [10]: 0.5
potency in comparison to epinephrine [10]: half

CNC[C@H](O)c1cccc(O)c1 [phenylephrine]
prevention of mucositis, dermatitis and alopecia induced by radiation [8]: successful outcome
interference to the curative radiation effect to cancerous tissues [9]: no interference
relative potencies of the topically applied vasoconstrictors (suppression of radiation dermatitis) [10]: 0.2
potency in comparison to epinephrine [10]: one fifth
